In patent publication US8575158B2, “1-phenyl-substituted heterocyclyl derivatives and their use as prostaglandin D2 receptor modulators” (Actelion Pharmaceuticals Ltd., priority 2010, dated 2013) one finds IC50 data, which are given here for 40 compounds.

Molecules are shown by their SMILES.

The target in the first assay is T1, hCRTH2 receptor (Homo sapiens, UniProt Q9Y5Y4).
T1 construct: expressed in transfected cells; host or cells: HEK293
T1 sequence (Q9Y5Y4 1-395): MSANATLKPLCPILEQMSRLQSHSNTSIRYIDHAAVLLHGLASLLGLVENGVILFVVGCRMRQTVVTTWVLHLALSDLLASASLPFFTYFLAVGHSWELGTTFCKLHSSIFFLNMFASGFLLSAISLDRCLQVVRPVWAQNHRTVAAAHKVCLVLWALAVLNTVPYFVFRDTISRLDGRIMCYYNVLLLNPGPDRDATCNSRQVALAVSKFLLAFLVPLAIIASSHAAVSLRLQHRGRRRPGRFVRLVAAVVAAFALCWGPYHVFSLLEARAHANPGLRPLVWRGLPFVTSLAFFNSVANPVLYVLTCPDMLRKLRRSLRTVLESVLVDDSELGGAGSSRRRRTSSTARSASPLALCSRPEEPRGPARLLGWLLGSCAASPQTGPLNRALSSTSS
Briefly: Radioligand displacement assay (3H-PGD2) on hCRTH2 receptor membranes. The class given is binding. To be noted: antagonistic activity, 3H-PGD2 radioligand displacement, HEK293-hCRTH2 membranes.
For the compound `COc1ccc2[nH]cc(CCC(=O)N3Cc4ccccc4C3c3cc(Cl)ccc3OCC(=O)O)c2c1` (racemic) [Example 511], the IC50 is 14.8 nM. On the same count and under the same terms, the result for `Cc1ccc(OCC(=O)N2Cc3ccccc3C2c2cc(Cl)ccc2OCC(=O)O)c(C)n1` (racemic) [Example 512] reads 42.5 nM. `Cn1cc(CCC(=O)N2Cc3ccccc3C2c2cc(Cl)ccc2OCC(=O)O)c2ccccc21` (racemic) [Example 513] came in with an IC50 of 25.9 nM. Still for that read-out and setting: the result for `O=C(O)COc1ccc(Cl)cc1C1c2ccccc2CN1C(=O)CCN1CCc2ccccc21` (racemic) [Example 514] reads 38.8 nM; that for `O=C(O)COc1ccc(Cl)cc1C1c2ccccc2CN1C(=O)CCN1CCCc2ccccc21` (racemic) [Example 515], 60.1 nM; that for `O=C(O)COc1ccc(Cl)cc1C1c2ccccc2CN1C(=O)CCn1ncc2ccccc21` (racemic) [Example 516], 12.5 nM. With `O=C(O)COc1ccc(Cl)cc1C1c2ccccc2CN1C(=O)CCOc1cccc(F)c1` (racemic) [Example 517], the half-inhibitory concentration (IC50) came out at 123 nM. With `COc1ccc2onc(CC(=O)N3Cc4ccccc4C3c3cc(Cl)ccc3OCC(=O)O)c2c1` (racemic) [Example 518], the IC50 is 20.1 nM. For `Cc1cn(CCC(=O)N2Cc3ccccc3C2c2cc(Cl)ccc2OCC(=O)O)c2ccccc12` (racemic) [Example 519], the concentration for half-maximal inhibition (IC50) is 37.4 nM.

In turn, `O=C(O)COc1ccc(Cl)cc1C1c2ccccc2CN1C(=O)CCOc1ccc(F)cc1` (racemic) [Example 520] displayed a concentration for half-maximal inhibition (IC50) of 130 nM. Still for that read-out and setting: the same measure for `O=C(O)COc1ccc(Cl)cc1C1c2ccccc2CN1C(=O)COCc1ccccc1Cl` (racemic) [Example 521]: 9.11 nM; for `O=C(O)COc1ccc(Cl)cc1C1c2ccccc2CN1C(=O)CCOc1ccccc1F` (racemic) [Example 522]: 11.7 nM.

As to `O=C(O)COc1ccc(Cl)cc1C1c2ccc(F)cc2CN1C(=O)CCn1ncc2ccccc21` (racemic) [Example 526, (±)-{4-Chloro-2-[5-fluoro-2-(3-indazol-1-yl-propionyl)-2,3-dihydro-1H-isoindol-1-yl]-phenoxy}-acetic acid], the half-maximal inhibitory concentration (IC50) came out at 4.53 nM. Still for that read-out and setting: the same measure for `O=C(O)COc1ccc(Cl)cc1C1c2ccccc2CN1C(=O)NCc1ccccc1F` (racemic) [Example 552]: 19.6 nM; for `O=C(O)COc1ccc(Cl)cc1C1c2ccccc2CN1C(=O)NCc1cccc(F)c1` (racemic) [Example 553]: 17.4 nM; for `O=C(O)COc1ccc(Cl)cc1C1c2ccccc2CN1C(=O)NCc1ccc(F)cc1` (racemic) [Example 554]: 25.7 nM. Same read-out and setting: the same measure for `O=C(O)COc1ccc(Cl)cc1C1c2ccccc2CN1C(=O)NCc1ccccc1` (racemic) [Example 555]: 14.5 nM. On the same count and under the same terms, the result for `O=C(O)COc1ccc(Cl)cc1C1c2ccccc2CN1C(=O)NCCc1ccccc1` (racemic) [Example 556] reads 11.7 nM; that for `O=C(O)COc1ccc(Cl)cc1C1c2ccccc2CN1C(=O)NCc1ccccc1Cl` (racemic) [Example 557], 13.7 nM; that for `O=C(O)COc1ccc(Cl)cc1C1c2ccc(Cl)c(Cl)c2CN1C(=O)OCc1ccccc1` (racemic) [Example 558], 16.9 nM. For the compound `O=C(O)COc1ccc(Cl)cc1C1c2ccc(F)c(F)c2CN1C(=O)OCc1ccccc1` (racemic) [Example 559], the half-maximal inhibitory concentration (IC50) amounted to 11.2 nM. `CC(C)[C@@H]1C[C@H]1C(=O)N1CCc2ccccc2[C@H]1c1cc(Cl)ccc1OCC(=O)O` (single isomer, unassigned) [Example 464] registered an IC50 of 789 nM.

`CC(C)[C@@H]1C[C@H]1C(=O)N1CCc2ccccc2[C@H]1c1cc(Cl)ccc1OCC(=O)O` (single isomer, unassigned) [Example 465] returned an IC50 of 53.5 nM. The compound `O=C(O)COc1ccc(Cl)cc1C1c2ccccc2CN1C(=O)CCn1ncc2cc(F)ccc21` (single isomer, unassigned) [Example 527, (4-Chloro-2-{2-[3-(5-fluoro-indazol-1-yl)-propionyl]-2,3-dihydro-1H-isoindol-1-yl}-phenoxy)-acetic acid] showed an IC50 of 8.12 nM.

Consider `Cc1nn(CCC(=O)N2Cc3ccccc3C2c2cc(Cl)ccc2OCC(=O)O)c2cccc(F)c12` (single isomer, unassigned) [Example 528, (4-Chloro-2-{2-[3-(4-fluoro-3-methyl-indazol-1-yl)-propionyl]-2,3-dihydro-1H-isoindol-1-yl}-phenoxy)-acetic acid], for which the IC50 stood at 33.2 nM.

For `Cc1nn(CCC(=O)N2Cc3ccccc3C2c2cc(Cl)ccc2OCC(=O)O)c2cccc(Cl)c12` (single isomer, unassigned) [Example 529], the IC50 came out at 78 nM. On the same count and under the same terms, the same measure for `Cc1nn(CCC(=O)N2Cc3ccccc3C2c2cc(Cl)ccc2OCC(=O)O)c2c(F)cccc12` (single isomer, unassigned) [Example 530]: 101 nM. The compound `Cc1nn(CCC(=O)N2Cc3ccccc3C2c2cc(Cl)ccc2OCC(=O)O)c2cc(F)ccc12` (single isomer, unassigned) [Example 531, (4-Chloro-2-{2-[3-(6-fluoro-3-methyl-indazol-1-yl)-propionyl]-2,3-dihydro-1H-isoindol-1-yl}-phenoxy)-acetic acid] returned a concentration for half-maximal inhibition (IC50) of 30.9 nM. Same read-out and setting: the same measure for `Cc1nn(CCC(=O)N2Cc3ccccc3C2c2cc(Cl)ccc2OCC(=O)O)c2cc(Cl)ccc12` (single isomer, unassigned) [Example 532, (4-Chloro-2-{2-[3-(6-chloro-3-methyl-indazol-1-yl)-propionyl]-2,3-dihydro-1H-isoindol-1-yl}-phenoxy)-acetic acid]: 40.7 nM; for `Cc1nn(CCC(=O)N2Cc3ccccc3C2c2cc(Cl)ccc2OCC(=O)O)c2ccccc12` (single isomer, unassigned) [Example 533, (4-Chloro-2-{2-[3-(3-methyl-indazol-1-yl)-propionyl]-2,3-dihydro-1H-isoindol-1-yl}-phenoxy)-acetic acid]: 6.09 nM.

Still in this assay, the particulars now being: antagonistic activity; 3H-PGD2 displacement on HEK293-hCRTH2 membrane fragments.
`O=C(O)COc1ccc(Cl)cc1C1c2ccccc2CCN1C(=O)[C@@H]1C[C@H]1c1ccccc1Cl` (relative stereo) [Example 82, (4-Chloro-2-{2-[trans-2-(2-chloro-phenyl)-cyclopropanecarbonyl]-1,2,3,4-tetrahydro-isoquinolin-1-yl}-phenoxy)-acetic acid] registered an IC50 of 4.8 nM. Same read-out and setting: the same measure for `O=C(O)COc1ccc(Cl)cc1C1c2cccc(F)c2CCN1C(=O)[C@@H]1C[C@H]1c1ccccc1` (relative stereo) [Example 117, {4-Chloro-2-[5-fluoro-2-(trans-2-phenyl-cyclopropanecarbonyl)-1,2,3,4-tetrahydro-isoquinolin-1-yl]-phenoxy}-acetic acid]: 32.5 nM; for `O=C(O)COc1ccc(F)cc1[C@@H]1c2ccccc2CCN1C(=O)[C@@H]1C[C@H]1c1ccccc1` (single isomer, unassigned) [Example 29]: 7.72 nM; for `O=C(O)COc1ccc(F)cc1[C@@H]1c2ccccc2CCN1C(=O)[C@@H]1C[C@H]1c1ccccc1` (single isomer, unassigned) [Example 30]: 912 nM.

Consider `Cc1ccccc1C1CC1C(=O)N1CCc2ccccc2C1c1cc(Cl)ccc1OCC(=O)O` (single isomer, unassigned) [Example 153, (±)-{4-Chloro-2-[2-((trans)-2-o-tolyl-cyclopropanecarbonyl)-1,2,3,4-tetrahydro-isoquinolin-1-yl]-phenoxy}-acetic acid (diastereosiomer 1)], for which the IC50 turned out to be 123 nM. On to `Cc1ccccc1C1CC1C(=O)N1CCc2ccccc2C1c1cc(Cl)ccc1OCC(=O)O` (single isomer, unassigned) [Example 154, (±)-{4-Chloro-2-[2-((trans)-2-o-tolyl-cyclopropanecarbonyl)-1,2,3,4-tetrahydro-isoquinolin-1-yl]-phenoxy}-acetic acid (diastereosiomer 2)], for which the IC50 was 4.83 nM. For `O=C(O)COc1ccc(Cl)cc1C1c2ccccc2CCN1C(=O)C1CC1c1ccccc1C(F)(F)F` (single isomer, unassigned) [Example 155, (±)-(4-Chloro-2-{2-[(trans)-2-(2-trifluoromethyl-phenyl)-cyclopropanecarbonyl]-1,2,3,4-tetrahydro-iso-quinolin-1-yl}-phenoxy)-acetic acid (diatereoisomer 1)], the IC50 came out at 166 nM.

On to `O=C(O)COc1ccc(Cl)cc1C1c2ccccc2CCN1C(=O)C1CC1c1ccccc1C(F)(F)F` (single isomer, unassigned) [Example 156, (±)-(4-Chloro-2-{2-[(trans)-2-(2-trifluoromethyl-phenyl)-cyclopropanecarbonyl]-1,2,3,4-tetrahydro-iso-quinolin-1-yl}-phenoxy)-acetic acid (diatereoisomer 2)], for which the IC50 was determined as 14.2 nM.

The same assay, now with this note: radioligand displacement (3H-PGD2), hCRTH2 receptor membranes; antagonistic activity.
With `O=C(OCc1ccccc1)N1CCc2ccccc2C1c1cc(Cl)ccc1OCc1noc(=O)[nH]1` (racemic) [Example 572, (±)-1-[5-Chloro-2-(5-oxo-4,5-dihydro-[1,2,4]oxadiazol-3-ylmethoxy)-phenyl]-3,4-dihydro-1H-isoquinoline-2-carboxylic acid benzyl ester], the IC50 is 325 nM. Still for that read-out and setting: the same measure for `O=C(OCc1ccccc1)N1CCc2ccccc2C1c1cc(Cl)ccc1OCc1cc(O)no1` (racemic) [Example 573, (±)-1-[5-Chloro-2-(3-hydroxy-isoxazol-5-ylmethoxy)-phenyl]-3,4-dihydro-1H-isoquinoline-2-carboxylic acid benzyl ester]: 15.3 nM.
